Results: patent publication US9555135B2, “Cobalt-based MRI contrast agent and imaging system” (BOARD OF REGENTS, THE UNIVERSITY OF TEXAS SYSTEM, priority 2011, dated 2017)

Assays:
[1] = Relaxivity measurements on 1.5-T clinical MRI scanner; format: physicochemical
Protocol: All studies were performed on a 1.5-T clinical MRI scanner (Excite HD, GE Healthcare Technologies, Waukesha, Wis.) equipped with a high-performance gradient hardware package (Cardiac Resonance Module) and multichannel, fast-receiver hardware. The maximal achievable slew rate was 120 mT/m/s, maximal amplitude was 23 mT/m, and receiver bandwidth was 500 kHz. For relaxation measurements, the samples were placed in a room temperature water bath and imaged using a quadrature knee coil. T1-weighted measurements used an inversion recovery spin-echo technique (repetition time [TR]/[…] [TE], 5,000 ms/10 ms; inversion time, 50-4,000 ms). The T2-weighted measurements used a spin echo sequence (TR, 5,000 ms; TE, 20-1,000 ms). T2*-weighted measurements used a multi-echo, fast, gradient echo acquisition (TR, 600 ms; TE, 2-57 ms, with an echo spacing of 3.3 ms). All imaging data were analyzed using in-house software written in MATLAB (MathWorks, Natick, Mass.). The MRI sequences used for the ex vivo experiments have previously been described (see, Shetty, A. M., et al., Journal of Magnetic Resonance Imaging, Vol. 26, pp. 1672-1677 (2007)) and used a high-resolution, three-dimensional, spoiled gradient recalled echo acquisition (TR/TE, 15.6 ms/2.5 ms; flip angle, 60°; voxel size, 0.4×0.4×0.8 mm, receiver bandwidth, 488.3 Hz/pixel). The large flip angle was used to accentuate the signal from the ECAMs (with lower T1-weighted relaxation times) against the background. The high bandwidth and short echo time were chosen to minimize susceptibility artifacts in the region of the titanium markers.
Relaxivity measurements were obtained using the slope of the weighted least-squares regression of the relaxation rate versus concentration. […] The ratio of the relaxivities were >1 (r2/r1=1.21±0.29), which is consistent with T1-weighted positive contrast agents.

[2] = Pharmacokinetic arm: cobalt disposition in plasma, tissues, urine and feces after intraprostatic CoCl2-NAC injection, total cobalt by ICP; format: in vivo, rat
Protocol: (§1) A toxicity and pharmacokinetic study of intraprostatically-administered cobalt dichloride-N-acetyl cysteine (CoCl2-NAC) was conducted in a rat model by the Pharmaceutical Development Center in the Department of Veterinary Medicine and Surgery (DVMS) facilities, U.T.M.D. Anderson Cancer Center, (Houston, Tex.). CoCl2-NAC is a novel MRI marker for prostate brachytherapy under development for use in localization of implanted radioactive seeds under MRI. […] The purpose of this study was to evaluate the distribution and potential toxicity of Co-NAC systemic exposure secondary to potential leakage from in-situ rupture of the Co-NAC-ECAMs in a male rat model.
The volume of CoCl2-NAC injected (9 μl) was predetermined on the assumption of 80-120 seeds leaking into the human prostate following implantation and scaling to a 150 gram male rat model. Cobalt disposition in plasma and tissues and organ toxicity were evaluated. For the pharmacokinetic arm, 60 male rats (20/group) were assigned to two dose groups and a vehicle control group and administered 1% (low concentration) and 10% (high concentration) CoCl2-NAC or vehicle control as an injection into the prostate. Following dosing, one cohort of 5 animals from each dose-level was sacrificed at 5, 30, and 60 minutes and 6 hours following the end of drug administration. Specific tissues (spleen, heart, brain, prostate, lung, kidney, liver, gut) from all animals were harvested, blotted, and weighed. An additional 3 animals were administered the high concentration and were maintained individually in metabolic cages. Urine and feces were collected at the end of 60 min, 6 and 24 hr intervals on the day prior to dosing and post dosing the following day. All samples were analyzed for total cobalt content by inductively-coupled plasma (ICP) analysis. For the toxicity arm, 30 male rats (10/group) were assigned to two dose groups and a vehicle control group and administered 1% and 10% CoCl2-NAC or vehicle control injected into the prostate. […]

[3] = T1-weighted MRI visualization of contrast agent in seeds in agarose phantom
Protocol: Initially, the titanium and acrylic seeds were custom designed to have an outer and inner diameter of 3 mm and 1.5 mm and an outer length and inner hollow length of 4.5 mm and 3.5 mm, respectively. After injection of the cobalt-chloride complex contrast (CoCl2-NAC) agent into the manufactured seeds, MRI was performed on the seeds and strand-like combinations. For the canine prostate experiments, standard nonradioactive titanium seeds were incorporated into a synthesized strand, with acrylic and glass tubes cut with an outer diameter of 0.8 mm and length of 5.5 mm, injected with the CoCl2-NAC agent ([…]), and closed on the ends with two polymer taps.
All studies involving animals or animal tissues were performed under an Institutional Animal Care and Use Committee-approved protocol. For this experiment, after completion of another investigator's in vivo experiments, a canine prostate was excised at necropsy, placed in normal saline, and fixed in agarose gel (10% by weight, Type-A, Sigma-Aldrich, St. Louis, Mo.). The ECAMs were subsequently inserted into the prostate and imaged using MRI. Similarly, the ECAMs were inserted into an in-house-manufactured agarose phantom for direct visualization. The signal intensities of the agarose and prostatic tissue were similar on T1 weighted MRI, allowing substantial preliminary assessment of the relative contrast of the ECAMs without a tissue-based phantom. 1.5-T MRI T1-weighted sequences for imaging marker experiments.
All studies were performed on a 1.5-T clinical MRI scanner (Excite HD, GE Healthcare Technologies, Waukesha, Wis.) equipped with a high-performance gradient hardware package (Cardiac Resonance Module) and multichannel, fast-receiver hardware. The maximal achievable slew rate was 120 mT/m/s, maximal amplitude was 23 mT/m, and receiver bandwidth was 500 kHz. For relaxation measurements, the samples were placed in a room temperature water bath and imaged using a quadrature knee coil. T1-weighted measurements used an inversion recovery spin-echo technique (repetition time [TR]/[…] [TE], 5,000 ms/10 ms; inversion time, 50-4,000 ms). The T2-weighted measurements used a spin echo sequence (TR, 5,000 ms; TE, 20-1,000 ms). T2*-weighted measurements used a multi-echo, fast, gradient echo acquisition (TR, 600 ms; TE, 2-57 ms, with an echo spacing of 3.3 ms). All imaging data were analyzed using in-house software written in MATLAB (MathWorks, Natick, Mass.). […]

[4] = Toxicity arm: single intraprostatic CoCl2-NAC injection, clinical pathology, gross and microscopic pathology; format: in vivo, rat
Protocol: as §1
The volume of CoCl2-NAC injected (9 μl) was predetermined on the assumption of 80-120 seeds leaking into the human prostate following implantation and scaling to a 150 gram male rat model. Cobalt disposition in plasma and tissues and organ toxicity were evaluated. For the pharmacokinetic arm, 60 male rats (20/group) were assigned to two dose groups and a vehicle control group and administered 1% (low concentration) and 10% (high concentration) CoCl2-NAC or vehicle control as an injection into the prostate. Following dosing, one cohort of 5 animals from each dose-level was sacrificed at 5, 30, and 60 minutes and 6 hours following the end of drug administration. Specific tissues (spleen, heart, brain, prostate, lung, kidney, liver, gut) from all animals were harvested, blotted, and weighed. An additional 3 animals were administered the high concentration and were maintained individually in metabolic cages. Urine and feces were collected at the end of 60 min, 6 and 24 hr intervals on the day prior to dosing and post dosing the following day. All samples were analyzed for total cobalt content by inductively-coupled plasma (ICP) analysis. For the toxicity arm, 30 male rats (10/group) were assigned to two dose groups and a vehicle control group and administered 1% and 10% CoCl2-NAC or vehicle control injected into the prostate. Groups of animals were sacrificed and necropsied on Study Days 1 (24 hrs) and 14 and blood and tissues collected for evaluation of clinical pathology and organ toxicity.

androgen receptor = androgen receptor (Homo sapiens, UniProt P10275); details: concentration; cited from earlier work
Chain of androgen receptor (P10275 whole entry, species assumed): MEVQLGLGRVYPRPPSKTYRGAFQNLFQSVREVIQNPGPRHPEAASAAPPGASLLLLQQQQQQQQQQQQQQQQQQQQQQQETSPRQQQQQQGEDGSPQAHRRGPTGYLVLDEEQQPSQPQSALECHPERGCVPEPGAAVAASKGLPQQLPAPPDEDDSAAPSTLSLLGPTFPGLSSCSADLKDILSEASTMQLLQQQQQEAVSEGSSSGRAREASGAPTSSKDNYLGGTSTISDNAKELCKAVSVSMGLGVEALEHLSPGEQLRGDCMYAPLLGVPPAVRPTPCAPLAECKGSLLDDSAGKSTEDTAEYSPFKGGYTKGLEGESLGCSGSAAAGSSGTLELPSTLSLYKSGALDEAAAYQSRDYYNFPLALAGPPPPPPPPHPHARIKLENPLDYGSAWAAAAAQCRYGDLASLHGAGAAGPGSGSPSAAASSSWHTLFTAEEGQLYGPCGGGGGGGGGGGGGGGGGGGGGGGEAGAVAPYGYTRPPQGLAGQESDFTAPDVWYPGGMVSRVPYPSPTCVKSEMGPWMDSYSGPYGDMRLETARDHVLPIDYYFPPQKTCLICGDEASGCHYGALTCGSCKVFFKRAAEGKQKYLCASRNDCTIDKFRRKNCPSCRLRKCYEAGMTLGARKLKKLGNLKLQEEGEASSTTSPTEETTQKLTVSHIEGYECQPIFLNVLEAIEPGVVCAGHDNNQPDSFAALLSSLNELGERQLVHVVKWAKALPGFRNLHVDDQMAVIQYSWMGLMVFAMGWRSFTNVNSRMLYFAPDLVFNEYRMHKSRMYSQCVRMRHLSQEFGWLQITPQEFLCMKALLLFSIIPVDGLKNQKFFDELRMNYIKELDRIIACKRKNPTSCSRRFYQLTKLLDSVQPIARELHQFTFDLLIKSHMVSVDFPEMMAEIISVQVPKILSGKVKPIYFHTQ

SMILES: CC(=O)N[C@@H](CS)C(=O)O.[Cl][Co][Cl] [CoCl2-NAC, cobalt-dichloride-N-acetyl cysteine]
- ratio of the relaxivities r2/r1 [1]: 1.21±0.29
- spin-lattice relaxivity (r1) ([1]; room temperature water bath): 0.093 ± 0.022 mM⁻¹ s⁻¹
- spin-spin relaxivity (r2) ([1]; room temperature water bath): 0.105 ± 0.01 mM⁻¹ s⁻¹
- peri-prostatic cobalt concentration by 60 minutes ([2]; high dose group (10%), 4 of 5 animals): not quantifiable
- cobalt in kidney tissue ([2]; low dose group (1%)): No cobalt was measurable
- cobalt in plasma ([2]; low dose group (1%)): no measurable cobalt
- visualization of acrylic and glass hollow seeds containing the agent ([3]; 0.5-5 μL of aqueous solution (0.3-10 wt. %), phantom, 1.5-T MRI): well visualized
- visualization inside the titanium seed ([3]; T1-weighted MRI, phantom): could not be visualized
- signal on T1-weighted MRI inside polymer seeds ([3]; concentrations of 0.5-10%, in phantom): increased signal
- signal on three-dimensional T1-weighted spoiled gradient recalled acquisition, compared with the various agents tested ([3]; in phantom): highest signal
- alterations in group means of hematological or clinical chemistry parameters ([4]; 1% and 10% CoCl2-NAC, Study Days 1 and 14): No toxicologically-important dose-related alterations
- microscopic examination (histopathology) ([4]; 1% and 10% CoCl2-NAC, any of the tested dose levels): no histopathologic lesions
- test article-related morbidity or mortality ([4]; 1% and 10% CoCl2-NAC, intraprostatic, male rat): No test article-related morbidity or mortality
- no-observed-adverse-effect-level (NOAEL) ([4]; single intra-prostatic administration, male rat, highest dose tested): 10 % CoCl2-NAC solution
- test article-related adverse clinical signs ([4]; toxicology arm, 1% and 10% CoCl2-NAC): No test article-related adverse clinical signs

SMILES: CC(C)(O)C(=O)Nc1ccc([N+](=O)[O-])c(C(F)(F)F)c1 [hydroxyflutamide]
- effect on transcriptional activity of androgen receptor (androgen receptor): enhance the transcriptional activity
